In the test the target is T1, human Nav1.8 (Homo sapiens, UniProt Q9Y5Y9).
T1 construct: expressed in transfected cells; host or cells: HEK293 (HEK293-Nav1.8)
T1 sequence (Q9Y5Y9 whole entry): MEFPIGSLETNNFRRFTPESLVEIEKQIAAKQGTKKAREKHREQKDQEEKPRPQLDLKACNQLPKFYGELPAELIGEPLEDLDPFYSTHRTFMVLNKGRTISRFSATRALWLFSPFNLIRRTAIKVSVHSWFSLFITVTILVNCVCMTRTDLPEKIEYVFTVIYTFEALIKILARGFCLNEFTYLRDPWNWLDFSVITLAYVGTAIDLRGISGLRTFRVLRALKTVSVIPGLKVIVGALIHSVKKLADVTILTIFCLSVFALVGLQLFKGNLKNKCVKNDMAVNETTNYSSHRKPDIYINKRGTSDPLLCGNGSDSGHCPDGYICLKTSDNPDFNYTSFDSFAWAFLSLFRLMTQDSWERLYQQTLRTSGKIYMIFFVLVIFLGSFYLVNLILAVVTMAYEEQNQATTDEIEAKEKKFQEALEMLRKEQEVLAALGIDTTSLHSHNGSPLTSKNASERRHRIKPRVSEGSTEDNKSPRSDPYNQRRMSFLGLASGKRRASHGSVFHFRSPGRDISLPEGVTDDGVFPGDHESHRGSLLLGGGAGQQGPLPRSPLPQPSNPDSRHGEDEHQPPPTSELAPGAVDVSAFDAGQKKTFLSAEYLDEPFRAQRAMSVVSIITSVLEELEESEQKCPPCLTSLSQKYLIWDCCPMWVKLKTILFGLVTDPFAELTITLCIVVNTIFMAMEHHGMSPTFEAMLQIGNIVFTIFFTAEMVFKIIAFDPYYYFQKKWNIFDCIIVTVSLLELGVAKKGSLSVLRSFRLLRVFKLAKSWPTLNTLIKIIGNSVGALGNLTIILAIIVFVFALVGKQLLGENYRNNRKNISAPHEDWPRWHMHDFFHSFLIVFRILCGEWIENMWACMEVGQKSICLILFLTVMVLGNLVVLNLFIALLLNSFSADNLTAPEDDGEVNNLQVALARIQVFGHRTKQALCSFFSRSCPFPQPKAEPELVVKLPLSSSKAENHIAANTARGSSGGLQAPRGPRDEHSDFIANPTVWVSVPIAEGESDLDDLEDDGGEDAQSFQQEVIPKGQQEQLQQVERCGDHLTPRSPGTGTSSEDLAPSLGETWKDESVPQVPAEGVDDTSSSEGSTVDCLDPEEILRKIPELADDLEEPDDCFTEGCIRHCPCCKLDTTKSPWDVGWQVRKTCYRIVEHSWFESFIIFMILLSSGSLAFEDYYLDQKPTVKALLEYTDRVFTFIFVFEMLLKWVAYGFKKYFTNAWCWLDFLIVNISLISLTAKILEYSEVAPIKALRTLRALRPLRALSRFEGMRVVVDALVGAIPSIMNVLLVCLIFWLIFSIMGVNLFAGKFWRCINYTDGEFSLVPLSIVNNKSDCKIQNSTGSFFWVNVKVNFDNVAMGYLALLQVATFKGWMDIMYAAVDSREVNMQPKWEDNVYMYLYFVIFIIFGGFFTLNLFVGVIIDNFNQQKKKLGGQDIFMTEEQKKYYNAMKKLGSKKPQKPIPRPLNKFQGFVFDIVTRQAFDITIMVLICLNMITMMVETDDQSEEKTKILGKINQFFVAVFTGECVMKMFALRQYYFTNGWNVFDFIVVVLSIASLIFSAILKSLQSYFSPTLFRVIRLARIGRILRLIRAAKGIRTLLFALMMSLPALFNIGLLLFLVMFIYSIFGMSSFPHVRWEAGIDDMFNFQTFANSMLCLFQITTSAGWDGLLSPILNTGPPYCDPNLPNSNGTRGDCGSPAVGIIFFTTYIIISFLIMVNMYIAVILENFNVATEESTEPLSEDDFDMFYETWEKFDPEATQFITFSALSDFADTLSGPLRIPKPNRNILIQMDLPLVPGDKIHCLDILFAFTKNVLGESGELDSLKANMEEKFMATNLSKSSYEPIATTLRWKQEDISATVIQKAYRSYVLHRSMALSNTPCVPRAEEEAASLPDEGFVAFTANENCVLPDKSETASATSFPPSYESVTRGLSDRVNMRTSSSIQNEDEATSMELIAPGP
T1 sequence (Q07699 19-218 partner): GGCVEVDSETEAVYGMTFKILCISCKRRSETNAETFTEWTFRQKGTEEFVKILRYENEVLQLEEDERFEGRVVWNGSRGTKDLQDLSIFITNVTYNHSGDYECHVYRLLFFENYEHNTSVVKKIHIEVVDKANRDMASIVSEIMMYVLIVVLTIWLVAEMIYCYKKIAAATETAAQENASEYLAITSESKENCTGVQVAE
In words: Nav1.8 sodium channels assay, QPatch 48 HTX electrophysiology in HEK293-Nav1.8 cells. Format: cell-based. The conditions noted are these: at least one set of experimental runs; read-out: average pIC50 value against Nav1.8 (converted). The method, then:
Human embryonic kidney […] cells (HEK293) expressing human Nav1.8, human Navβ1 and human TREK1 (HEK293-Nav1.8) were grown at 37° C., 5% CO2 in 150 cm^2 flasks. HEK293-Nav1.8 were passaged every 2-3 days when confluency reached 80-90% in to T175 cell culture flasks.
Pharmacological assessment of the invention was performed using HEK293-Nav1.8 in combination with an assay developed on the QPatch 48 HTX electrophysiological system. HEK293-Nav1.8 were prepared on the day of use by removing culture media, washing in DPBS, adding Accutase (2 ml to cover the surface, aspirate 1 ml then 1.5 min at 37° C.) followed by addition of CHO-SFM II to stop the enzyme digestion and in order to obtain a suspension of 3×10^6 cell/mL.
The invention was prepared in an extracellular solution of the following composition (in mM) NaCl 145, KCl 4, CaCl2 2, MgCl 2, HEPES 1, Glucose 10, pH 7.4 with NaOH Osmolality 300 mOsM/L. The intracellular solution was used of the following composition (in mM) CsF 115, CsCl 20, NaCl 5, EGTA 10, HEPES 10, Sucrose 20, pH 7.2 with CsOH Osmolality 310 mOsm/L.
Utilizing the voltage-clamp mode in the QPatch 48 HTX system a half inactivation state voltage protocol (V1/2) was used to determine pharmacological activity of the invention at Nav1.8 ion channels. A V1/2 protocol was utilized with the following voltage steps: a holding voltage of −100 mV was established followed by a 20 ms voltage step to 0 mV (P1), followed by an inactivating voltage step at −46 mV for 8 seconds, followed by a step to −100 mV for 20 ms, before a 20 ms step to 0 mV (P2) before returning to the holding voltage of −100 mV. This voltage protocol was repeated at a frequency of 0.07 Hz., current magnitude was quantified at the P2 step throughout the recording. Inhibition of the measured current amplitude with the invention was analyzed by fitting a 6-8 point dose-response curve allowing determination of the fifty percent inhibition concentration (IC50). Within the QPatch HTX software, P2 current was normalized according to measurements made at baseline after compound and after positive reference compound and fit to the following equation: […]
To assess current run-down over the course of the experiment vehicle-only wells were utilized and the normalized current with vehicle-only (n.IVEH) was determined. To correct the compound response for run-down, the currents were correct according the following formula: […]
Compounds of the invention are tested for activity against Nav1. 8 sodium channels in the above assay.
For `Cc1ncccc1N1CN(c2ccc(=O)[nH]c2C)C(=O)c2ccc(C(F)(F)F)cc21` [Example 46, 3-(2-methyl-6-oxo-1,6-dihydropyridin-3-yl)-1-(2-methylpyridin-3-yl)-7-(trifluoromethyl)-2,3-dihydroquinazolin-4(1H)-one], the IC50 is 794 to 7940 nM.

Consider `Cc1[nH]c(=O)ccc1N1CN(c2ccc(F)cc2C(C)C)c2cc(C(F)(F)F)ccc2C1=O` [Example 47, 1-(4-fluoro-2-isopropylphenyl)-3-(2-methyl-6-oxo-1,6-dihydropyridin-3-yl)-7-(trifluoromethyl)-2,3-dihydroquinazolin-4(1H)-one], for which the IC50 was no more than 100 nM.

`Cc1cc(F)ccc1N1CN(c2ccc(=O)[nH]c2C)C(=O)c2cc(Cl)ccc21` [Example 48, 6-chloro-1-(4-fluoro-2-methylphenyl)-3-(2-methyl-6-oxo-1,6-dihydropyridin-3-yl)-2,3-dihydroquinazolin-4(1H)-one]: the IC50 was no more than 100 nM.

Turning to `Cc1[nH]c(=O)ccc1N1CN(c2ccc(F)cc2)c2ccccc2C1=O` [Example 49, 1-(4-fluorophenyl)-3-(2-methyl-6-oxo-1,6-dihydropyridin-3-yl)-2,3-dihydroquinazolin-4(1H)-one], the IC50 is 794 to 7940 nM.

Consider `Cc1ccccc1N1CN(c2ccc(=O)[nH]c2C)C(=O)c2ccccc21` [Example 50, 3-(2-methyl-6-oxo-1,6-dihydropyridin-3-yl)-1-(o-tolyl)-2,3-dihydroquinazolin-4(1H)-one], for which the IC50 was 126 to 631 nM.

Turning to `Cc1ccc2c(c1)C(=O)N(c1ccc(=O)[nH]c1C)CN2c1ccc(F)cc1C` [Example 51, 1-(4-f1uoro-2-methylphenyl)-6-methyl-3-(2-methyl-6-oxo-1,6-dihydropyridin-3-yl)-2,3-dihydroquinazolin-4(1H)-one], the IC50 was no more than 100 nM.

`Cc1cc(F)ccc1N1CN(c2ccc(=O)[nH]c2C)C(=O)c2ccccc21` [Example 52, 1-(4-fluoro-2-methylphenyl)-3-(2-methyl-6-oxo-1,6-dihydropyridin-3-yl)-2,3-dihydroquinazolin-4(1H)-one]: the IC50 was no more than 100 nM.

Take `Cc1cc(N2CN(c3ccc(F)cc3C)c3cc(C(F)(F)F)ccc3C2=O)cc(=O)[nH]1` [Example 53, 1-(4-fluoro-2-methylphenyl)-3-(6-methyl-2-oxo-1,2-dihydropyridin-4-yl)-7-(trifluoromethyl)-2,3-dihydroquinazolin-4(1H)-one]: the IC50 is 794 to 7940 nM.

With `Cc1c[nH]c(=O)cc1N1CN(c2ccc(F)cc2C)c2cc(C(F)(F)F)ccc2C1=O` [Example 54, 1-(4-fluoro-2-methylphenyl)-3-(5-methyl-2-oxo-1,2-dihydropyridin-4-yl)-7-(trifluoromethyl)-2,3-dihydroquinazolin-4(1H)-one], the IC50 was 794 to 7940 nM.

As to `Cc1cc(F)ccc1N1CN(c2cc[nH]c(=O)c2C)C(=O)c2ccc(C(F)(F)F)cc21` [Example 55, 1-(4-fluoro-2-methylphenyl)-3-(3-methyl-2-oxo-1,2-dihydropyridin-4-yl)-7-(trifluoromethyl)-2,3-dihydroquinazolin-4(1H)-one], the IC50 is 794 to 7940 nM.

On to `Cc1cc(F)ccc1N1CN(c2ccc(=O)[nH]c2C)C(=O)c2ccc(OC(F)(F)F)cc21` [Example 56, 1-(4-fluoro-2-methylphenyl)-3-(2-methyl-6-oxo-1,6-dihydropyridin-3-yl)-7-(trifluoromethoxy)-2,3-dihydroquinazolin-4(1H)-one], for which the IC50 is no more than 100 nM.

For `Cc1ccc2c(c1)N(c1ccc(F)cc1C)CN(c1ccc(=O)[nH]c1C)C2=O` [Example 57, 1-(4-fluoro-2-methylphenyl)-7-methyl-3-(2-methyl-6-oxo-1,6-dihydropyridin-3-yl)-2,3-dihydroquinazolin-4(1H)-one], the IC50 was no more than 100 nM.

With `Cc1cc(F)ccc1N1CN(c2ncc(=O)[nH]c2C)C(=O)c2ccc(C(F)(F)F)cc21` [Example 58, 1-(4-fluoro-2-methylphenyl)-3-(3-methyl-5-oxo-4,5-dihydropyrazin-2-yl)-7-(trifluoromethyl)-2,3-dihydroquinazolin-4(1H)-one], the IC50 was 126 to 631 nM.

In the case of `Cc1cc(F)ccc1N1CN(c2cc(=O)[nH]c(=O)[nH]2)C(=O)c2ccc(C(F)(F)F)cc21` [Example 59, 6-(1-(4-fluoro-2-methylphenyl)-4-oxo-7-(trifluoromethyl)-1,4-dihydroquinazolin-3(2H)-yl)pyrimidine-2,4(1H,3H)-dione], the IC50 is 794 to 7940 nM.

For the compound `CCc1cc(F)ccc1N1CN(c2ccc(=O)[nH]c2C)C(=O)c2cc(C(F)(F)F)ccc21` [Example 60, 1-(2-ethyl-4-fluorophenyl)-3-(2-methyl-6-oxo-1,6-dihydropyridin-3-yl)-6-(trifluoromethyl)-2,3-dihydroquinazolin-4(1H)-one], the IC50 is no more than 100 nM.

For `Cc1cc(F)ccc1N1CN(c2c[nH]c(=O)nc2C)C(=O)c2cc(Cl)ccc21` [Example 61, 6-chloro-1-(4-fluoro-2-methylphenyl)-3-(4-methyl-2-oxo-1,2-dihydropyrimidin-5-yl)-2,3-dihydroquinazolin-4(1H)-one], the IC50 is no more than 100 nM.

As for `Cc1cc(=O)[nH]c(C)c1N1CN(c2ccc(F)cc2C(C)C)c2cc(C(F)(F)F)ccc2C1=O` [Example 62, 3-(2,4-dimethyl-6-oxo-1,6-dihydropyridin-3-yl)-1-(4-fluoro-2-isopropylphenyl)-7-(trifluoromethyl)-2,3-dihydroquinazolin-4(1H)-one], the IC50 was 794 to 7940 nM.

With `Cc1[nH]c(=O)ccc1N1CN(c2ccc(F)cc2C(C)C)c2ncc(C(F)(F)F)cc2C1=O` [Example 63], the IC50 is no more than 100 nM.

In the case of `CCc1[nH]c(=O)ccc1N1CN(c2ccc(F)cc2C)c2ccc(C(F)(F)F)cc2C1=O` [Example 64, 3-(2-ethyl-6-oxo-1,6-dihydropyridin-3-yl)-1-(4-fluoro-2-methylphenyl)-6-(trifluoromethyl)-2,3-dihydroquinazolin-4(1H)-one], the IC50 was no more than 100 nM.

As for `Cc1cc(F)ccc1N1CN(c2ccc(=O)[nH]c2C)C(=O)c2ccc(N(C)C)cc21` [Example 65, 7-(dimethylamino)-1-(4-fluoro-2-methylphenyl)-3-(2-methyl-6-oxo-1,6-dihydropyridin-3-yl)-2,3-dihydroquinazolin-4(1H)-one], the IC50 was no more than 100 nM.

With `Cc1cc(F)ccc1N1CN(c2ccc(=O)[nH]c2C)C(=O)c2ccc(Cl)cc21` [Example 66, 7-chloro-1-(4-fluoro-2-methylphenyl)-3-(2-methyl-6-oxo-1,6-dihydropyridin-3-yl)-2,3-dihydroquinazolin-4(1H)-one], the IC50 is no more than 100 nM.

`CNc1ccc2c(c1)N(c1ccc(F)cc1C)CN(c1ccc(=O)[nH]c1C)C2=O` [Example 67, 1-(4-fluoro-2-methylphenyl)-3-(2-methyl-6-oxo-1,6-dihydropyridin-3-yl)-7-(methylamino)-2,3-dihydroquinazolin-4(1H)-one]: the IC50 was 126 to 631 nM.

As for `CCOc1cc(F)ccc1N1CN(c2ccc(=O)[nH]c2C)C(=O)c2cc(Cl)ccc21` [Example 68, 6-chloro-1-(2-ethoxy-4-fluorophenyl)-3-(2-methyl-6-oxo-1,6-dihydropyridin-3-yl)-2,3-dihydroquinazolin-4(1H)-one], the IC50 is 126 to 631 nM.

As for `Cc1ccc2c(c1)N(c1ccc(F)cc1C(C)C)CN(c1ccc(=O)[nH]c1C)C2=O` [Example 69, 1-(4-fluoro-2-isopropylphenyl)-7-methyl-3-(2-methyl-6-oxo-1,6-dihydropyridin-3-yl)-2,3-dihydroquinazolin-4(1H)-one], the IC50 is no more than 100 nM.

With `Cc1cc(F)ccc1N1CN(c2ccc(=O)[nH]c2C)C(=O)c2cc(F)c(C(F)F)cc21` [Example 70, 7-(difluoromethyl)-6-fluoro-1-(4-fluoro-2-methylphenyl)-3-(2-methyl-6-oxo-1,6-dihydropyridin-3-yl)-2,3-dihydroquinazolin-4(1H)-one], the IC50 is no more than 100 nM.

For the compound `Cc1cc(F)ccc1N1CN(c2ccc(=O)[nH]c2C)C(=O)c2cc(F)c(C)nc21` [Example 71, 6-fluoro-1-(4-fluoro-2-methylphenyl)-7-methyl-3-(2-methyl-6-oxo-1,6-dihydropyridin-3-yl)-2,3-dihydropyrido[2,3-d]pyrimidin-4(1H)-one], the IC50 was 126 to 631 nM.

Regarding `Cc1cc(F)ccc1N1CN(c2ccc(=O)[nH]c2C)C(=O)c2cc(Cl)c(C)nc21` [Example 72, 6-chloro-1-(4-fluoro-2-methylphenyl)-7-methyl-3-(2-methyl-6-oxo-1,6-dihydropyridin-3-yl)-2,3-dihydropyrido[2,3-d]pyrimidin-4(1H)-one], the IC50 is no more than 100 nM.

The record behind these values is patent publication US20230103791A1 (GLAXOSMITHKLINE INTELLECTUAL PROPERTY DEVELOPMENT LIMITED, priority 2019, published 2023).
